Experimental data as given in PubChem BioAssay AID330 (DTP/NCI, 2004).
Values joined by “and” are separate entries in the source; they are usually repeats but may differ in a detail not shown here. Identical values can stand only once. Inconclusive results and toxic doses are left out. The calls were made as follows: active = survival T/C of 150% or more; inactive = T/C below 125% in these data.

System: P388 leukemia ip, CD2F1 mice, survival T/C
Assay: NCI In Vivo Anticancer Drug Screen. Data for tumor model P388 Leukemia (intraperitoneal) in CD2F1 (CDF1) mice
Conditions: endpoint: median survival time, higher = longer survival
Procedure, shortened: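 Mice carrying the transplanted tumor received test compound or vehicle. Survival was recorded in each group, and the value is the treated-group measurement divided by that of the vehicle-treated control group.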

[1] = dose: 60.0 mg/kg/injection, schedule: Q01DX005 (ip), vehicle: saline with Tween-80
[2] = dose: 120.0 mg/kg/injection, schedule: Q01DX005 (ip), vehicle: saline with Tween-80
[3] = dose: 240.0 mg/kg/injection, schedule: Q01DX005 (ip), vehicle: saline with Tween-80
[4] = dose: 50.0 mg/kg/injection, schedule: Q01DX005 (ip), vehicle: saline with Tween-80
[5] = dose: 100.0 mg/kg/injection, schedule: Q01DX005 (ip), vehicle: saline with Tween-80
[6] = dose: 200.0 mg/kg/injection, schedule: Q01DX005 (ip), vehicle: saline with Tween-80
[7] = dose: 50.0 mg/kg/injection, schedule: Q01DX009 (ip), vehicle: saline with Tween-80
[8] = dose: 100.0 mg/kg/injection, schedule: Q01DX009 (ip), vehicle: saline with Tween-80
[9] = dose: 200.0 mg/kg/injection, schedule: Q01DX009 (ip), vehicle: saline with Tween-80
[10] = dose: 12.5 mg/kg/injection, schedule: Q01DX009 (ip), vehicle: saline with Tween-80
[11] = dose: 50.0 mg/kg/injection, schedule: Q01DX009 (ip), vehicle: Klucel (hydroxypropylcellulose) (HPC)
[12] = dose: 100.0 mg/kg/injection, schedule: Q01DX009 (ip), vehicle: Klucel (hydroxypropylcellulose) (HPC)
[13] = dose: 200.0 mg/kg/injection, schedule: Q01DX009 (ip), vehicle: Klucel (hydroxypropylcellulose) (HPC)
[14] = dose: 400.0 mg/kg/injection, schedule: Q01DX009 (ip), vehicle: saline with Tween-80
[15] = dose: 50.0 mg/kg/injection, schedule: Q01DX005 (ip), vehicle: Klucel (hydroxypropylcellulose) (HPC)
[16] = dose: 100.0 mg/kg/injection, schedule: Q01DX005 (ip), vehicle: Klucel (hydroxypropylcellulose) (HPC)
[17] = dose: 200.0 mg/kg/injection, schedule: Q01DX005 (ip), vehicle: Klucel (hydroxypropylcellulose) (HPC)

Measured: T/C

NC(CSCc1ccccc1)C(=O)O (stereo unspecified)
inactive: dose: 50.0 mg/kg/injection, schedule: Q01DX091 (ip), vehicle: Klucel (hydroxypropylcellulose) (HPC) 100 % of control | dose: 100.0 mg/kg/injection, schedule: Q01DX091 (ip), vehicle: Klucel (hydroxypropylcellulose) (HPC) 102 % of control | dose: 200.0 mg/kg/injection, schedule: Q01DX091 (ip), vehicle: Klucel (hydroxypropylcellulose) (HPC) 91 % of control | dose: 400.0 mg/kg/injection, schedule: Q01DX091 (ip), vehicle: Klucel (hydroxypropylcellulose) (HPC) 101 % of control

CC(=O)Nc1ccc(S(=O)(=O)c2ccc([N+](=O)[O-])s2)cc1
inactive: dose: 25.0 mg/kg/injection, schedule: Q04DX003 (ip), vehicle: Klucel (hydroxypropylcellulose) (HPC) 105 % of control | dose: 50.0 mg/kg/injection, schedule: Q04DX003 (ip), vehicle: Klucel (hydroxypropylcellulose) (HPC) 102 % of control

CC1Cc2nc3ccccc3nc2C1
inactive: [1] 99 % of control | [2] 99 % of control | [3] 104 % of control

O=C1c2cc3c(cc2C(=O)c2ncccc21)CCCC3
inactive: [4] 98 % of control | [5] 86 % of control | [6] 89 % of control

CC(S)c1ccccc1 (stereo unspecified)
inactive: [7] 115 % of control | [8] 113 % of control | [9] 115 % of control

CC1(C)CC(N)=CC(=S)N1
inactive: [10] 92 % of control | dose: 25.0 mg/kg/injection, schedule: Q01DX009 (ip), vehicle: saline with Tween-80 97 % of control | [7] 101 % of control

Cc1[nH]nc2c(Cc3ccc([N+](=O)[O-])cc3)n[nH]c(=O)c12
inactive: dose: 100.0 mg/kg/injection, schedule: Q04DX002 (ip), vehicle: Klucel (hydroxypropylcellulose) (HPC) 92 % of control | dose: 200.0 mg/kg/injection, schedule: Q04DX002 (ip), vehicle: Klucel (hydroxypropylcellulose) (HPC) 87 % of control | dose: 400.0 mg/kg/injection, schedule: Q04DX002 (ip), vehicle: Klucel (hydroxypropylcellulose) (HPC) 92 % of control

CC1CC(c2ccccc2)C(c2ccc(Cl)cc2)C(=O)O1 (stereo unspecified)
inactive: [11] 96 % of control | [12] 100 % of control | [13] 100 % of control

CCCCCCC(/C=C/c1ccccc1)=N\O
inactive: dose: 6.25 mg/kg/injection, schedule: Q01DX009 (ip), vehicle: Klucel (hydroxypropylcellulose) (HPC) 107 % of control | dose: 12.5 mg/kg/injection, schedule: Q01DX009 (ip), vehicle: Klucel (hydroxypropylcellulose) (HPC) 102 % of control | dose: 25.0 mg/kg/injection, schedule: Q01DX009 (ip), vehicle: Klucel (hydroxypropylcellulose) (HPC) 103 % of control and 104 % of control | [11] 108 % of control and 112 % of control | [12] 103 % of control | [13] 104 % of control and 110 % of control | dose: 400.0 mg/kg/injection, schedule: Q01DX009 (ip), vehicle: Klucel (hydroxypropylcellulose) (HPC) 109 % of control and 98 % of control

CC1=CC(C)(C)NC(=S)N1c1cccc(Cl)c1
inactive: dose: 3.12 mg/kg/injection, schedule: Q01DX009 (ip), vehicle: saline with Tween-80 107 % of control and 118 % of control | dose: 6.25 mg/kg/injection, schedule: Q01DX009 (ip), vehicle: saline with Tween-80 111 % of control and 114 % of control | [10] 101 % of control and 118 % of control | [8] 93 % of control | [9] 90 % of control | [14] 90 % of control

CC(=O)c1cc2c(cc1I)OCO2
inactive: dose: 100.0 mg/kg/injection, schedule: Q01DX001 (ip), vehicle: Klucel (hydroxypropylcellulose) (HPC) 101 % of control | dose: 200.0 mg/kg/injection, schedule: Q01DX001 (ip), vehicle: Klucel (hydroxypropylcellulose) (HPC) 99 % of control | dose: 400.0 mg/kg/injection, schedule: Q01DX001 (ip), vehicle: Klucel (hydroxypropylcellulose) (HPC) 101 % of control

N#CC1=C(O)/C(=C\c2ccc(Cl)cc2)N=C1N
inactive: [4] 88 % of control | [5] 91 % of control | [6] 94 % of control

O=C1CNC(=O)N1c1ccccc1
inactive: [8] 103 % of control | [9] 98 % of control | [14] 103 % of control

COc1cccc(C2SCC(=O)N2c2nncs2)c1 (stereo unspecified)
inactive: [1] 100 % of control | [2] 97 % of control | [3] 104 % of control

COc1ccc2c(NCCCCCCCCNc3c4ccc(OC)cc4nc4ccc(Cl)cc34)c3cc(Cl)ccc3nc2c1
inactive: dose: 0.63 mg/kg/injection, schedule: Q01DX009 (ip), vehicle: other 91 % of control | dose: 1.25 mg/kg/injection, schedule: Q01DX009 (ip), vehicle: other 105 % of control | dose: 2.5 mg/kg/injection, schedule: Q01DX009 (ip), vehicle: other 106 % of control | dose: 5.0 mg/kg/injection, schedule: Q01DX009 (ip), vehicle: other 118 % of control

O=C(O)c1nn(Cc2ccc(Br)cc2Br)c2ccccc12
inactive: dose: 100.0 mg/kg/injection, schedule: Q01DX001 (ip), vehicle: saline with Tween-80 114 % of control | dose: 200.0 mg/kg/injection, schedule: Q01DX001 (ip), vehicle: saline with Tween-80 104 % of control | dose: 400.0 mg/kg/injection, schedule: Q01DX001 (ip), vehicle: saline with Tween-80 114 % of control

CC(Cc1ccccc1)NC(=O)c1cccnc1 (stereo unspecified)
inactive: [15] 98 % of control | [16] 90 % of control | [17] 99 % of control

COc1cc(C)c(/C=C/C(C)=C/c2cc(C)cc(=O)o2)c(C)c1C
inactive: dose: 25.0 mg/kg/injection, schedule: Q01DX005 (ip), vehicle: Klucel (hydroxypropylcellulose) (HPC) 86 % of control | [15] 88 % of control | [16] 86 % of control and 92 % of control

CC(=O)c1ccc2c(c1)NC(=O)CC(C)N2 (stereo unspecified)
inactive: [15] 99 % of control | [16] 99 % of control | [17] 103 % of control

OCC1OC(n2cnc3c(SCc4ccccn4)ncnc32)C(O)C1O (stereo unspecified)
inactive: dose: 12.5 mg/kg/injection, schedule: Q04DX003 (ip), vehicle: saline with Tween-80 109 % of control | dose: 25.0 mg/kg/injection, schedule: Q04DX003 (ip), vehicle: saline with Tween-80 96 % of control | dose: 50.0 mg/kg/injection, schedule: Q04DX003 (ip), vehicle: saline with Tween-80 99 % of control | dose: 100.0 mg/kg/injection, schedule: Q04DX003 (ip), vehicle: saline with Tween-80 96 % of control

O=C(c1cccc(C(=O)N2CCOCC2)n1)N1CCOCC1
inactive: dose: 60.0 mg/kg/injection, schedule: Q01DX005 (ip), vehicle: saline 106 % of control | dose: 120.0 mg/kg/injection, schedule: Q01DX005 (ip), vehicle: saline 100 % of control | dose: 240.0 mg/kg/injection, schedule: Q01DX005 (ip), vehicle: saline 106 % of control

CSc1nc(NC2OC(CO)C(O)C(O)C2O)c(C=O)c(=O)[nH]1 (stereo unspecified)
inactive: [1] 92 % of control | [2] 95 % of control | [3] 87 % of control

CCN1c2ccccc2Sc2cc(C=O)ccc21
inactive: [11] 91 % of control | [12] 107 % of control | [13] 101 % of control

N#Cc1ccccc1Cl
inactive: [7] 100 % of control | [8] 101 % of control | [9] 98 % of control

NC(=O)c1nn[nH]n1
inactive: [11] 97 % of control | [12] 100 % of control

O=C1CSC(=S)N1c1cccc(F)c1
inactive: dose: 50.0 mg/kg/injection, schedule: Q01DX009 (ip), vehicle: suspension in saline 108 % of control | dose: 100.0 mg/kg/injection, schedule: Q01DX009 (ip), vehicle: suspension in saline 100 % of control | dose: 200.0 mg/kg/injection, schedule: Q01DX009 (ip), vehicle: suspension in saline 100 % of control
